Measurements reported in PubChem BioAssay AID256 (DTP/NCI, 2004).
“And” between values parts separate entries of the source, which are not always exact repeats. Equal entries are not always repeated. Inconclusive results and toxic doses are left out.

Tested on: CD2F1 mice, L1210 leukemia ip, survival T/C
Assay: NCI In Vivo Anticancer Drug Screen. Data for tumor model L1210 Leukemia (intraperitoneal) in CD2F1 (CDF1) mice
Conditions: higher = longer survival
Summary of the method: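 Implant tumor; dose compound or vehicle; measure endpoint in both groups; report treated divided by control.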

O=C(O)c1ccc(C(=O)O)c(C(=O)O)c1.[NH-]C1CCCCC1[NH-].[Pt+2]
T/C (endpoint: mean survival time, dose: 0.39 mg/kg/injection, schedule: Q01DX009 (ip), vehicle: sodium bicarbonate): 123 % of control | T/C (endpoint: mean survival time, dose: 0.39 mg/kg/injection, schedule: Q04DX003 (ip), vehicle: other): 115 % of control | T/C (endpoint: mean survival time, dose: 0.78 mg/kg/injection, schedule: Q01DX009 (ip), vehicle: sodium bicarbonate): 174 % of control and 200 % of control | T/C (endpoint: mean survival time, dose: 0.78 mg/kg/injection, schedule: Q04DX003 (ip), vehicle: other): 120 % of control | T/C (endpoint: mean survival time, dose: 0.78 mg/kg/injection, schedule: Q04DX003 (ip), vehicle: sodium bicarbonate): 119 % of control | T/C (endpoint: mean survival time, dose: 1.56 mg/kg/injection, schedule: Q01DX009 (ip), vehicle: sodium bicarbonate): 172 % of control and 325 % of control | T/C (endpoint: mean survival time, dose: 1.56 mg/kg/injection, schedule: Q04DX003 (ip), vehicle: sodium bicarbonate): 119 % of control | T/C (endpoint: mean survival time, dose: 3.12 mg/kg/injection, schedule: Q01DX009 (ip), vehicle: sodium bicarbonate): 155 % of control and 196 % of control and 251 % of control | T/C (endpoint: mean survival time, dose: 3.13 mg/kg/injection, schedule: Q04DX003 (ip), vehicle: other): 183 % of control | T/C (endpoint: mean survival time, dose: 6.25 mg/kg/injection, schedule: Q01DX009 (ip), vehicle: sodium bicarbonate): 190 % of control | T/C (endpoint: mean survival time, dose: 6.25 mg/kg/injection, schedule: Q04DX003 (ip), vehicle: other): 240 % of control and 263 % of control | T/C (endpoint: mean survival time, dose: 6.25 mg/kg/injection, schedule: Q04DX003 (ip), vehicle: sodium bicarbonate): 158 % of control | T/C (endpoint: mean survival time, dose: 8.0 mg/kg/injection, schedule: Q01DX005 (oral), vehicle: sodium bicarbonate): 113 % of control and 120 % of control and 101 % of control | T/C (endpoint: mean survival time, dose: 12.5 mg/kg/injection, schedule: Q01DX009 (ip), vehicle: sodium bicarbonate): 227 % of control and 97 % of control | T/C (endpoint: mean survival time, dose: 12.5 mg/kg/injection, schedule: Q04DX003 (ip), vehicle: other): 273 % of control and 291 % of control | T/C (endpoint: mean survival time, dose: 12.5 mg/kg/injection, schedule: Q04DX003 (ip), vehicle: sodium bicarbonate): 247 % of control | T/C (endpoint: mean survival time, dose: 16.0 mg/kg/injection, schedule: Q01DX005 (oral), vehicle: sodium bicarbonate): 100 % of control and 105 % of control | T/C (endpoint: mean survival time, dose: 25.0 mg/kg/injection, schedule: Q04DX003 (ip), vehicle: other): 328 % of control and 444 % of control | T/C (endpoint: mean survival time, dose: 25.0 mg/kg/injection, schedule: Q04DX003 (ip), vehicle: sodium bicarbonate): 186 % of control | T/C (endpoint: mean survival time, dose: 32.0 mg/kg/injection, schedule: Q01DX005 (oral), vehicle: sodium bicarbonate): 108 % of control | T/C (endpoint: mean survival time, dose: 64.0 mg/kg/injection, schedule: Q01DX005 (oral), vehicle: sodium bicarbonate): 108 % of control | T/C (endpoint: mean survival time, dose: 128.0 mg/kg/injection, schedule: Q01DX005 (oral), vehicle: sodium bicarbonate): 113 % of control and 103 % of control | T/C (endpoint: mean survival time, dose: 256.0 mg/kg/injection, schedule: Q01DX005 (oral), vehicle: sodium bicarbonate): 116 % of control and 121 % of control and 111 % of control | T/C (endpoint: median survival time, dose: 0.58 mg/kg/injection, schedule: Q01DX009 (ip), vehicle: sodium bicarbonate): 156 % of control | T/C (endpoint: median survival time, dose: 0.87 mg/kg/injection, schedule: Q01DX009 (ip), vehicle: water): 101 % of control and 112 % of control | T/C (endpoint: median survival time, dose: 1.2 mg/kg/injection, schedule: Q01DX009 (ip), vehicle: sodium bicarbonate): 361 % of control | T/C (endpoint: median survival time, dose: 1.3 mg/kg/injection, schedule: Q01DX009 (ip), vehicle: water): 115 % of control and 107 % of control | T/C (endpoint: median survival time, dose: 1.8 mg/kg/injection, schedule: Q01DX009 (ip), vehicle: sodium bicarbonate): 313 % of control | T/C (endpoint: median survival time, dose: 2.0 mg/kg/injection, schedule: Q01DX009 (ip), vehicle: water): 122 % of control and 101 % of control | T/C (endpoint: median survival time, dose: 2.7 mg/kg/injection, schedule: Q01DX009 (ip), vehicle: sodium bicarbonate): 240 % of control | T/C (endpoint: median survival time, dose: 3.0 mg/kg/injection, schedule: Q01DX009 (ip), vehicle: sodium bicarbonate): 357 % of control | T/C (endpoint: median survival time, dose: 3.13 mg/kg/injection, schedule: Q04DX003 (ip), vehicle: other): 154 % of control and 280 % of control | T/C (endpoint: median survival time, dose: 3.13 mg/kg/injection, schedule: Q04DX003 (ip), vehicle: sodium bicarbonate): 174 % of control | T/C (endpoint: median survival time, dose: 3.5 mg/kg/injection, schedule: Q01DX009 (ip), vehicle: water): 107 % of control | T/C (endpoint: median survival time, dose: 4.0 mg/kg/injection, schedule: Q01DX009 (ip), vehicle: sodium bicarbonate): 166 % of control | T/C (endpoint: median survival time, dose: 4.5 mg/kg/injection, schedule: Q01DX009 (ip), vehicle: sodium bicarbonate): 237 % of control | T/C (endpoint: median survival time, dose: 5.0 mg/kg/injection, schedule: Q04DX003 (ip), vehicle: sodium bicarbonate): 176 % of control and 186 % of control and 195 % of control | T/C (endpoint: median survival time, dose: 5.24 mg/kg/injection, schedule: Q04DX003 (ip), vehicle: sodium bicarbonate): 158 % of control | T/C (endpoint: median survival time, dose: 5.3 mg/kg/injection, schedule: Q01DX009 (ip), vehicle: sodium bicarbonate): 182 % of control | T/C (endpoint: median survival time, dose: 6.25 mg/kg/injection, schedule: Q04DX003 (ip), vehicle: other): 202 % of control and 313 % of control | T/C (endpoint: median survival time, dose: 6.25 mg/kg/injection, schedule: Q04DX003 (ip), vehicle: saline): 265 % of control | T/C (endpoint: median survival time, dose: 6.25 mg/kg/injection, schedule: Q04DX003 (ip), vehicle: sodium bicarbonate): 154 % of control and 348 % of control | T/C (endpoint: median survival time, dose: 7.78 mg/kg/injection, schedule: Q04DX003 (ip), vehicle: sodium bicarbonate): 198 % of control | T/C (endpoint: median survival time, dose: 8.0 mg/kg/injection, schedule: Q01DX009 (ip), vehicle: water): 180 % of control | T/C (endpoint: median survival time, dose: 8.3 mg/kg/injection, schedule: Q01DX009 (ip), vehicle: water): 277 % of control and 108 % of control | T/C (endpoint: median survival time, dose: 10.0 mg/kg/injection, schedule: Q04DX003 (ip), vehicle: sodium bicarbonate): 231 % of control and 247 % of control and 430 % of control | T/C (endpoint: median survival time, dose: 11.81 mg/kg/injection, schedule: Q04DX003 (ip), vehicle: sodium bicarbonate): 295 % of control | T/C (endpoint: median survival time, dose: 12.0 mg/kg/injection, schedule: Q01DX009 (ip), vehicle: water): 298 % of control | T/C (endpoint: median survival time, dose: 12.5 mg/kg/injection, schedule: Q04DX003 (ip), vehicle: other): 202 % of control | T/C (endpoint: median survival time, dose: 12.5 mg/kg/injection, schedule: Q04DX003 (ip), vehicle: saline): 361 % of control | T/C (endpoint: median survival time, dose: 12.5 mg/kg/injection, schedule: Q04DX003 (ip), vehicle: sodium bicarbonate): 309 % of control and 348 % of control | T/C (endpoint: median survival time, dose: 13.0 mg/kg/injection, schedule: Q04DX003 (ip), vehicle: sodium bicarbonate): 231 % of control | T/C (endpoint: median survival time, dose: 16.0 mg/kg/injection, schedule: Q01DX009 (ip), vehicle: water): 240 % of control | T/C (endpoint: median survival time, dose: 17.74 mg/kg/injection, schedule: Q04DX003 (ip), vehicle: sodium bicarbonate): 214 % of control | T/C (endpoint: median survival time, dose: 20.0 mg/kg/injection, schedule: Q01DX001 (ip), vehicle: sodium bicarbonate): 174 % of control | T/C (endpoint: median survival time, dose: 25.0 mg/kg/injection, schedule: Q04DX003 (ip), vehicle: saline): 361 % of control | T/C (endpoint: median survival time, dose: 25.0 mg/kg/injection, schedule: Q04DX003 (ip), vehicle: sodium bicarbonate): 357 % of control | T/C (endpoint: median survival time, dose: 26.64 mg/kg/injection, schedule: Q04DX003 (ip), vehicle: sodium bicarbonate): 345 % of control | T/C (endpoint: median survival time, dose: 30.0 mg/kg/injection, schedule: Q01DX001 (ip), vehicle: sodium bicarbonate): 170 % of control and 175 % of control and 333 % of control | T/C (endpoint: median survival time, dose: 30.0 mg/kg/injection, schedule: Q04DX003 (ip), vehicle: sodium bicarbonate): 323 % of control | T/C (endpoint: median survival time, dose: 40.0 mg/kg/injection, schedule: Q01DX001 (ip), vehicle: sodium bicarbonate): 198 % of control and 714 % of control | T/C (endpoint: median survival time, dose: 50.0 mg/kg/injection, schedule: Q01DX001 (ip), vehicle: sodium bicarbonate): 210 % of control | T/C (endpoint: median survival time, dose: 50.0 mg/kg/injection, schedule: Q04DX003 (ip), vehicle: sodium bicarbonate): 345 % of control | T/C (endpoint: median survival time, dose: 64.0 mg/kg/injection, schedule: Q01DX009 (ip), vehicle: water): 89 % of control

CNC1(C(=O)c2ccccc2)CC2CCC1C2 (configuration not stated)
T/C (endpoint: mean survival time, dose: 100.0 mg/kg/injection, schedule: Q01DX001 (ip), vehicle: saline): 95 % of control | T/C (endpoint: mean survival time, dose: 200.0 mg/kg/injection, schedule: Q01DX001 (ip), vehicle: saline): 96 % of control | T/C (endpoint: mean survival time, dose: 400.0 mg/kg/injection, schedule: Q01DX001 (ip), vehicle: saline): 98 % of control

O=C(CCl)N1c2ccccc2Sc2ccccc21
T/C (endpoint: mean survival time, dose: 25.0 mg/kg/injection, schedule: Q01DX009 (ip), vehicle: water): 93 % of control | T/C (endpoint: mean survival time, dose: 50.0 mg/kg/injection, schedule: Q01DX009 (ip), vehicle: water): 91 % of control | T/C (endpoint: mean survival time, dose: 100.0 mg/kg/injection, schedule: Q01DX009 (ip), vehicle: water): 95 % of control | T/C (endpoint: mean survival time, dose: 200.0 mg/kg/injection, schedule: Q01DX009 (ip), vehicle: water): 95 % of control

[Cl][Hg][c]1ccco1
T/C (endpoint: mean survival time, dose: 1.25 mg/kg/injection, schedule: Q01DX001 (ip), vehicle: Klucel (hydroxypropylcellulose) (HPC)): 100 % of control | T/C (endpoint: mean survival time, dose: 2.5 mg/kg/injection, schedule: Q01DX001 (ip), vehicle: Klucel (hydroxypropylcellulose) (HPC)): 96 % of control | T/C (endpoint: mean survival time, dose: 5.0 mg/kg/injection, schedule: Q01DX001 (ip), vehicle: Klucel (hydroxypropylcellulose) (HPC)): 97 % of control

Cc1cc(N)c(C)c([N+](=O)[O-])c1
T/C (endpoint: mean survival time, dose: 100.0 mg/kg/injection, schedule: Q04DX003 (ip), vehicle: saline with Tween-80): 103 % of control | T/C (endpoint: mean survival time, dose: 200.0 mg/kg/injection, schedule: Q04DX003 (ip), vehicle: saline with Tween-80): 101 % of control | T/C (endpoint: mean survival time, dose: 400.0 mg/kg/injection, schedule: Q04DX003 (ip), vehicle: saline with Tween-80): 92 % of control

ONc1ccccn1
T/C (endpoint: mean survival time, dose: 25.0 mg/kg/injection, schedule: Q01DX009 (ip), vehicle: saline): 101 % of control | T/C (endpoint: mean survival time, dose: 50.0 mg/kg/injection, schedule: Q01DX009 (ip), vehicle: saline): 96 % of control | T/C (endpoint: mean survival time, dose: 50.0 mg/kg/injection, schedule: Q04DX003 (ip), vehicle: saline): 98 % of control | T/C (endpoint: mean survival time, dose: 100.0 mg/kg/injection, schedule: Q01DX009 (ip), vehicle: saline): 95 % of control | T/C (endpoint: mean survival time, dose: 100.0 mg/kg/injection, schedule: Q04DX003 (ip), vehicle: saline): 98 % of control
